Consider 25 molecules from patent publication US8329904B2, “Azacyclic derivatives” (Hoffmann-La Roche Inc., priority 2009, dated 2012).

Usually pIC50 stands for the negative decadic logarithm of the IC50, by convention in mol/L.

pIC50: −log10 of the molar value.

The assay concerns the target T1, human HSL (Homo sapiens, UniProt Q05469).
T1 construct: overlapping PCR to generate a full length human HSL ORF with a 3′-His6 tag; His6 (C); made in house; host or cells: High 5 insect cells (baculovirus, pFast-BAC)
T1 sequence (Q05469 1-1076): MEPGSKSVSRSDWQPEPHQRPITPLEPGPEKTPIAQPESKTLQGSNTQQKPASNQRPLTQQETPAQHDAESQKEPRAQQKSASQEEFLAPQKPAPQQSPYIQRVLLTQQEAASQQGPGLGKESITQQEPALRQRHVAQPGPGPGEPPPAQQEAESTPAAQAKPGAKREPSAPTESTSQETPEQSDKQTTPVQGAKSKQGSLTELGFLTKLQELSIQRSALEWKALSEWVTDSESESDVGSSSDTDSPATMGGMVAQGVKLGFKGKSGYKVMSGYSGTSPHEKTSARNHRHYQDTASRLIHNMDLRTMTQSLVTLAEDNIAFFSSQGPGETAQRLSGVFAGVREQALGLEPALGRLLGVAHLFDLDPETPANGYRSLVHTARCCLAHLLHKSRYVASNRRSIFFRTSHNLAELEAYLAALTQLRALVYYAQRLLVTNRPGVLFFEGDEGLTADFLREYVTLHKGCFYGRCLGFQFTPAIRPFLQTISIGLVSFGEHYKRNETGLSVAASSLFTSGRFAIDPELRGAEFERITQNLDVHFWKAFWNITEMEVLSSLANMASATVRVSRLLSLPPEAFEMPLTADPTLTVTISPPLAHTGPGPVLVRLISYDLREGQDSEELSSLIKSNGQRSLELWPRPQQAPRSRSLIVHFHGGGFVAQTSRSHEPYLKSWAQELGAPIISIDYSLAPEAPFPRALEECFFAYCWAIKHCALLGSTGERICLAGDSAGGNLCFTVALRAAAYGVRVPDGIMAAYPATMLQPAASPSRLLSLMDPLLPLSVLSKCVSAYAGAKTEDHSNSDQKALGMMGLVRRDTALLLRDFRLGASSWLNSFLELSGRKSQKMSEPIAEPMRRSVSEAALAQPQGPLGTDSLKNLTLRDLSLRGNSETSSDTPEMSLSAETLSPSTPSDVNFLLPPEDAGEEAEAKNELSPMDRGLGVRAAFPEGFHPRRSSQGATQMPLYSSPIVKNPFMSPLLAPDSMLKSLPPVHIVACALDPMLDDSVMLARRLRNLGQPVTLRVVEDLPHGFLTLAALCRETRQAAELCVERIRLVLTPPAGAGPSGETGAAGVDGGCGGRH
As to the kind of experiment: Human Hormone-Sensitive Lipase (HSL) Enzyme Inhibition Assay. The assay is classed as biochemical. The conditions noted are these: colorimetric assay, 2,3-dimercapto-1-propanol tributyrate (DMPT) substrate, 37° C. for 20 minutes, absorbance at 405 nm; read-out: HSL hum IC50. In a few lines: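 Colorimetric thioester hydrolysis: compounds in DMSO series mixed with DMPT (1.5 mM) in MOPS pH 7.2 with BSA, then baculovirus-expressed His6-tagged full-length human HSL added, 37° C, 20 min. DTNB plus detergents added, 15 min room temperature, absorbance at 405 nm.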
On to `CCNS(=O)(=O)N1CCC2(CCN(c3ccc(OC(F)(F)F)cc3)C2=O)CC1` [Example 290, 1-Oxo-2-(4-trifluoromethoxy-phenyl)-2,8-diaza-spiro[4.5]decane-8-sulfonic acid ethylamide], for which the pIC50 was 6.80. As for `CCN(CC)S(=O)(=O)N1CCC2(CCN(c3ccc(OC(F)(F)F)cc3)C2=O)CC1` [Example 291, 1-Oxo-2-(4-trifluoromethoxy-phenyl)-2,8-diaza-spiro[4.5]decane-8-sulfonic acid diethylamide], the figure is 7.05; as for `CN(CCO)S(=O)(=O)N1CCC2(CCN(c3ccc(OC(F)(F)F)cc3)C2=O)CC1` [Example 292, 1-Oxo-2-(4-trifluoromethoxy-phenyl)-2,8-diaza-spiro[4.5]decane-8-sulfonic acid (2-hydroxy-ethyl)-methyl-amide], 6.70. As for `CC(C)CN(C)S(=O)(=O)N1CCC2(CCN(c3ccc(OC(F)(F)F)cc3)C2=O)CC1` [Example 293, 1-Oxo-2-(4-trifluoromethoxy-phenyl)-2,8-diaza-spiro[4.5]decane-8-sulfonic acid isobutyl-methyl-amide], the figure is 7.10; as for `CCN(CCOC)S(=O)(=O)N1CCC2(CCN(c3ccc(OC(F)(F)F)cc3)C2=O)CC1` [Example 294, 1-Oxo-2-(4-trifluoromethoxy-phenyl)-2,8-diaza-spiro[4.5]decane-8-sulfonic acid ethyl-(2-methoxy-ethyl)-amide], 7.05. With `CN(c1ccccc1)S(=O)(=O)N1CCC2(CCN(c3ccc(OC(F)(F)F)cc3)C2=O)CC1` [Example 295, 1-Oxo-2-(4-trifluoromethoxy-phenyl)-2,8-diaza-spiro[4.5]decane-8-sulfonic acid methyl-phenyl-amide], the pIC50 is 7.15. As for `CN(Cc1ccccc1)S(=O)(=O)N1CCC2(CCN(c3ccc(OC(F)(F)F)cc3)C2=O)CC1` [Example 296, 1-Oxo-2-(4-trifluoromethoxy-phenyl)-2,8-diaza-spiro[4.5]decane-8-sulfonic acid benzyl-methyl-amide], the figure is 7.15; as for `CN(CCc1ccccc1)S(=O)(=O)N1CCC2(CCN(c3ccc(OC(F)(F)F)cc3)C2=O)CC1` [Example 297, 1-Oxo-2-(4-trifluoromethoxy-phenyl)-2,8-diaza-spiro[4.5]decane-8-sulfonic acid methyl-phenethyl-amide], 6.96; as for `CN(CCc1ccccn1)S(=O)(=O)N1CCC2(CCN(c3ccc(OC(F)(F)F)cc3)C2=O)CC1` [Example 298, 1-Oxo-2-(4-trifluoromethoxy-phenyl)-2,8-diaza-spiro[4.5]decane-8-sulfonic acid methyl-(2-pyridin-2-yl-ethyl)-amide], 6.80. As for `CN(C(=O)N1CCC2(CC1)CCN(c1ccc(OC(F)(F)F)cc1)C2=O)c1ccc(C(F)(F)F)cc1` [Example 299, 1-Oxo-2-(4-trifluoromethoxy-phenyl)-2,8-diaza-spiro[4.5]decane-8-carboxylic acid methyl-(4-trifluoromethyl-phenyl)-amide], the pIC50 is 6.77. As for `CN(C(=O)N1CCC2(CC1)CCN(c1ccc(OC(F)(F)F)cc1)C2=O)c1ccc(Cl)cc1` [Example 300, 1-Oxo-2-(4-trifluoromethoxy-phenyl)-2,8-diaza-spiro[4.5]decane-8-carboxylic acid (4-chloro-phenyl)-methyl-amide], the figure is 7.22; as for `CN(C(=O)N1CCC2(CC1)CCN(c1ccc(OC(F)(F)F)cc1)C2=O)c1ccc(Cl)c(Cl)c1` [Example 301, 1-Oxo-2-(4-trifluoromethoxy-phenyl)-2,8-diaza-spiro[4.5]decane-8-carboxylic acid (3,4-dichloro-phenyl)-methyl-amide], 6.96. Take `CN(C(=O)N1CCC2(CC1)CCN(c1ccc(OC(F)(F)F)cc1)C2=O)c1cccc(Cl)c1` [Example 302, 1-Oxo-2-(4-trifluoromethoxy-phenyl)-2,8-diaza-spiro[4.5]decane-8-carboxylic acid (3-chloro-phenyl)-methyl-amide]: the pIC50 is 7.40.

For `CCCCN(CC)C(=O)N1CCC2(CC1)CCN(c1ccc(OC(F)(F)F)cc1)C2=O` [Example 303, 1-Oxo-2-(4-trifluoromethoxy-phenyl)-2,8-diaza-spiro[4.5]decane-8-carboxylic acid butyl-ethyl-amide], the pIC50 was 6.85.

With `CCN(C(=O)N1CCC2(CC1)CCN(c1ccc(OC(F)(F)F)cc1)C2=O)C(C)C` [Example 304, 1-Oxo-2-(4-trifluoromethoxy-phenyl)-2,8-diaza-spiro[4.5]decane-8-carboxylic acid ethyl-isopropyl-amide], the pIC50 is 7.10. The figure for `CCN(C(=O)N1CCC2(CC1)CCN(c1ccc(OC(F)(F)F)cc1)C2=O)C1CCCCC1` [Example 305, 1-Oxo-2-(4-trifluoromethoxy-phenyl)-2,8-diaza-spiro[4.5]decane-8-carboxylic acid cyclohexyl-ethyl-amide] is 6.85; for `CCN(Cc1ccccc1F)C(=O)N1CCC2(CC1)CCN(c1ccc(OC(F)(F)F)cc1)C2=O` [Example 306, 1-Oxo-2-(4-trifluoromethoxy-phenyl)-2,8-diaza-spiro[4.5]decane-8-carboxylic acid ethyl-(2-fluoro-benzyl)-amide] it is 6.80; for `CCN(Cc1ccncc1)C(=O)N1CCC2(CC1)CCN(c1ccc(OC(F)(F)F)cc1)C2=O` [Example 307, 1-Oxo-2-(4-trifluoromethoxy-phenyl)-2,8-diaza-spiro[4.5]decane-8-carboxylic acid ethyl-pyridin-4-ylmethyl-amide] it is 6.46.

With `CCN(C(=O)N1CCC2(CC1)CCN(c1ccc(OC(F)(F)F)cc1)C2=O)c1cccc(C)c1` [Example 308, 1-Oxo-2-(4-trifluoromethoxy-phenyl)-2,8-diaza-spiro[4.5]decane-8-carboxylic acid ethyl-m-tolyl-amide], the pIC50 was 7.30. As for `CCN(C(=O)N1CCC2(CC1)CCN(c1ccc(OC(F)(F)F)cc1)C2=O)c1ccc(Cl)cc1` [Example 309, 1-Oxo-2-(4-trifluoromethoxy-phenyl)-2,8-diaza-spiro[4.5]decane-8-carboxylic acid (4-chloro-phenyl)-ethyl-amide], the figure is 6.92; as for `CCN(Cc1ccccc1)C(=O)N1CCC2(CC1)CCN(c1ccc(OC(F)(F)F)cc1)C2=O` [Example 310, 1-Oxo-2-(4-trifluoromethoxy-phenyl)-2,8-diaza-spiro[4.5]decane-8-carboxylic acid benzyl-ethyl-amide], 6.77. As for `CCN(C(=O)N1CCC2(CC1)CCN(c1ccc(OC(F)(F)F)cc1)C2=O)c1ccc(OC(F)(F)F)cc1` [Example 311, 1-Oxo-2-(4-trifluoromethoxy-phenyl)-2,8-diaza-spiro[4.5]decane-8-carboxylic acid ethyl-(4-trifluoromethoxy-phenyl)-amide], the figure is 7.22; as for `Cc1cccc(Cl)c1S(=O)(=O)N1CCC2(CCN(c3ccc(OC(F)(F)F)cc3)C2=O)CC1` [Example 312, 8-(2-Chloro-6-methyl-benzenesulfonyl)-2-(4-trifluoromethoxy-phenyl)-2,8-diaza-spiro[4.5]decan-1-one], 7.10; as for `CC(C)CN(C)C(=O)N1CCC2(CC1)CCN(c1ccc(C3CC3)cc1)C2=O` [Example 313, 2-(4-Cyclopropyl-phenyl)-1-oxo-2,8-diaza-spiro[4.5]decane-8-carboxylic acid isobutyl-methyl-amide], 7.05. `CCCCN(C)C(=O)N1CCC2(CC1)CCN(c1ccc(C3CC3)cc1)C2=O` [Example 314, 2-(4-Cyclopropyl-phenyl)-1-oxo-2,8-diaza-spiro[4.5]decane-8-carboxylic acid butyl-methyl-amide]: the pIC50 was 6.89.
